Source: patent US4761422A, “(2-amino-4-aryl-thiazole-5-yl)ethanols and their derivatives having diuretic activity and methods for preparing the same” (Lusofarmaco Istituto Lusofarmaco d'Italia SpA, priority 1986, dated 1988)

Tests used:
[1] = Diuretic activity in rat (DA200, dosage causing doubling of the urinary volume), method of Fregnan et al.; type: in vivo; details: po, os
Text: The diuretic activity has been determined according to the method by G. B. Fregnan et al., Gazzetta Medica Italiana 128, 384 (1969).
In the Table given hereinbelow the pharmacological data of some of the compounds according to the invention in comparison with thienyl acid are set forth.
*Dosage causing doubling of the urinary volume

[2] = Acute toxicity in rat (DL50); details: in vivo, ip

Compound	ED (doubling of urinary volume) [1] [mg/kg]	LD50 [2] [mg/kg]
Nc1nc(-c2ccc(Cl)cc2)c(CCO)s1 [LR 409, 2-[2-amino-4-(p-chlorophenyl)thiazole-5-yl]ethanol]	30	280
CCN(CC)c1nc(-c2ccc(Cl)cc2)c(CCO)s1 [LR 440, 2-[2-diethylamino-4-(p-chlorophenyl)thiazole-5-yl]ethanol]	100	> 1000
CCN(CC)c1nc(-c2ccc(Cl)cc2)c(CCOC(N)=O)s1 [LR 525, 2-[2-diethylamino-4-(p-chlorophenyl)thiazole-5-yl]ethanol carbamate]	3	> 2000
NC(=O)NC(=O)OCCc1sc(N)nc1-c1ccc(Cl)cc1 [LR 856]	5	> 1000
CNc1nc(-c2ccc(Cl)cc2)c(CCO)s1 [LR 861, 2-[2-methylamino-4-(p-chlorophenyl)thiazole-5-yl]ethanol]	100	750
NC(=O)OCCc1sc(N)nc1-c1ccc(Cl)cc1 [LR 890, 2-[2-amino-4-(p-chlorophenyl)thiazole-5-yl]ethanol carbamate]	3	> 2000
CNc1nc(-c2ccc(Cl)cc2)c(CCOC(N)=O)s1 [LR 892, 2-[2-methylamino-4-(p-chlorophenyl)thiazole-5-yl]ethanol carbamate]	10	> 1000
O=C(O)COc1ccc(C(=O)c2cccs2)c(Cl)c1Cl [Thienyl acid, reference compound]	100	350
